Drawing on patent publication US12503436B2, “Compounds and compositions for treating conditions associated with STING activity” (NOVARTIS PHARMA AG, priority 2021, dated 2025), this text covers EC50 for 33 compounds.

This assay addresses STING (Homo sapiens, UniProt Q86WV6, G230A/H232R/R293Q/R71H). In words: STING reporter assay in THP1-Dual KO-IFNAR2 cells (2′3′cGAMP stimulation, luciferase reporter). Conditions: 15 μM 2′3′cGAMP stimulation, 24 h, read-out: Pharmaron, THP1_IFNAR2 STING 24 h Luci Normalized: GeoMean EC50. In kind it is cell-based. The method in brief:
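THP1-Dual KO-IFNAR2 cells (2×10E6 cells/mL) with compounds at 0.0017-100 μM final, stimulated with 15 μM final 2′3′cGAMP delivered by Lipofectamine 2000; 24 h at 37 °C. Luciferase in supernatant read with QUANTI-Luc Plus; EC50 derived from luminescence.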

Sequence of STING (Q86WV6 whole entry R71H/G230A/H232R/R293Q): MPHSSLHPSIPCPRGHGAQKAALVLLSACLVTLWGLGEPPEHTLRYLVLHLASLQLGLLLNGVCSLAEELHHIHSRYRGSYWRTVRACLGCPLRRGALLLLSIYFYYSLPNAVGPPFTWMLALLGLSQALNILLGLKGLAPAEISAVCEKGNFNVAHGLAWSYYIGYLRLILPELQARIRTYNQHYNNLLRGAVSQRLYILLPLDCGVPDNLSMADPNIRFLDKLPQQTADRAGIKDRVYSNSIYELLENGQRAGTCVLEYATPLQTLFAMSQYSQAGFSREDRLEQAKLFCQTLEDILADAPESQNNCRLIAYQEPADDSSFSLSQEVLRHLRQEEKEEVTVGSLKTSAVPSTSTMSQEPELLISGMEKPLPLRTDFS

For `CC[C@@H](O)C(=O)Nc1c[nH]c2ccc(O[C@H]3C[C@H](c4ccc(C(F)(F)F)cc4)C3)cc12` [Compound 429, (R)-2-hydroxy-N-(5-(trans-3-(4-(trifluoromethyl)phenyl)cyclobutoxy)-1H-indol-3-yl)butanamide], the half-maximal effective concentration (EC50) lay in the range of 200 to 1000 nM. Regarding `C=CCc1ccccc1OCCc1ccc2[nH]cc(NC(C)=O)c2c1` [Compound 548, N-(5-(2-(2-allylphenoxy)ethyl)-1H-indol-3-yl)acetamide], the EC50 was in the range of 200 to 1000 nM. Regarding `O=C(Nc1c[nH]c2ccc(OCCc3ccc(C(F)(F)F)cc3)cc12)C1(C(F)(F)F)CC1` [Compound 185, 1-(trifluoromethyl)-N-(5-(4-(trifluoromethyl)phenethoxy)-1H-indol-3-yl)cyclopropane-1-carboxamide], the EC50 lay within 200 to 1000 nM.

In the case of `N#CC1(C(=O)Nc2c[nH]c3ccc(O[C@H]4C[C@@H](c5ccc(C(F)(F)F)cc5)C4)cc23)CC1` [Compound 362, 1-cyano-N-(5-(cis-3-(4-(trifluoromethyl)phenyl)cyclobutoxy)-1H-indol-3-yl)cyclopropane-1-carboxamide], the EC50 lay in the range of 200 to 1000 nM. To `O=C(Nc1c[nH]c2ccc(O[C@H]3C[C@@H](c4ccc(C(F)(F)F)nc4)C3)cc12)[C@H]1C[C@@H](CO)C1` [Compound 550, cis-3-(hydroxymethyl)-N-(5-(cis-3-(6-(trifluoromethyl)pyridin-3-yl)cyclobutoxy)-1H-indol-3-yl)cyclobutane-1-carboxamide] belongs 200 to 1000 nM; to `CC(=O)Nc1c[nH]c2ccc(CC3(c4ccc(C(F)(F)F)cc4)CCOC3)cc12` (stereo not drawn) [Compound 507, N-(5-((3-(4-(trifluoromethyl)phenyl)tetrahydrofuran-3-yl)methyl)-1H-indol-3-yl)acetamide], 5000 to 100000 nM. On to `COCCCC(=O)Nc1c[nH]c2ccc(OCCC3CCN(CC(F)(F)F)CC3)cc12` [Compound 121, 4-methoxy-N-(5-(2-(1-(2,2,2-trifluoroethyl)piperidin-4-yl)ethoxy)-1H-indol-3-yl)butanamide], for which the EC50 lay within 200 to 1000 nM.

As to `CC(=O)Nc1c[nH]c2ccc(CCOc3cccc(CC#N)c3)cc12` [Compound 453, N-(5-{2-[3-(cyanomethyl)phenoxy]ethyl}-1H-indol-3-yl)acetamide], the EC50 was 1000 to 5000 nM. With `O=C(Nc1c[nH]c2ccc(O[C@H]3C[C@@H](c4ccc(C(F)(F)F)cc4)C3)cc12)C1CC(F)(F)C1` [Compound 587, 3,3-difluoro-N-(5-(cis-3-(4-(trifluoromethyl)phenyl)cyclobutoxy)-1H-indol-3-yl)cyclobutane-1-carboxamide], the EC50 was 40 to 200 nM. As to `CC(=O)Nc1c[nH]c2ccc(CCOc3ccc4c(c3)N(Cc3ccccc3)C(=O)CS4)cc12` [Compound 386, N-(5-(2-((4-benzyl-3-oxo-3,4-dihydro-2H-benzo[b][1,4]thiazin-6-yl)oxy)ethyl)-1H-indol-3-yl)acetamide], the EC50 lay in the range of 1000 to 5000 nM. As to `COCCN1CC(C)(C(=O)Nc2c[nH]c3ccc(O[C@H]4C[C@@H](c5ccc(C(F)(F)F)cc5)C4)cc23)C1` [Compound 422, 1-(2-methoxyethyl)-3-methyl-N-(5-(cis-3-(4-(trifluoromethyl)phenyl)cyclobutoxy)-1H-indol-3-yl)azetidine-3-carboxamide], the EC50 fell in the range of 1000 to 5000 nM.

Consider `CC(=O)Nc1c[nH]c2ccc(CCOc3ccc(C4(C)CCN(CC(F)(F)F)CC4)cc3)cc12` [Compound 198, N-(5-(2-(4-(4-methyl-1-(2,2,2-trifluoroethyl)piperidin-4-yl)phenoxy)ethyl)-1H-indol-3-yl)acetamide], for which the EC50 lay within 200 to 1000 nM. To `O=C(Nc1c[nH]c2ccc(O[C@H]3C[C@@H](c4ccc(C(F)(F)F)cc4)C3)cc12)C1CC(Cl)C1` (stereo partly drawn) [Compound 336, 3-chloro-N-(5-(cis-3-(4-(trifluoromethyl)phenyl)cyclobutoxy)-1H-indol-3-yl)cyclobutane-1-carboxamide] belongs 200 to 1000 nM; to `O=C(Nc1c[nH]c2ccc(CCCc3ccc(C(F)(F)F)cc3)cc12)C1CCC1` [Compound 139, N-(5-(3-(4-(trifluoromethyl)phenyl)propyl)-1H-indol-3-yl)cyclobutanecarboxamide], 40 to 200 nM; to `CC(=O)Nc1c[nH]c2ccc(OCC[C@@H]3C[C@@H]4CN(CC(F)(F)F)C[C@@H]4C3)cc12` [Compound 283, N-(5-(2-((3aR,5r,6aS)-2-(2,2,2-trifluoroethyl)octahydrocyclopenta[c]pyrrol-5-yl)ethoxy)-1H-indol-3-yl)acetamide], 200 to 1000 nM. Regarding `C[C@]1(C(=O)Nc2c[nH]c3ccc(OCc4ccc(C(F)(F)F)cc4)cc23)C[C@@H](CO)C1` [Compound 417, trans-3-(hydroxymethyl)-1-methyl-N-(5-((4-(trifluoromethyl)benzyl)oxy)-1H-indol-3-yl)cyclobutane-1-carboxamide], the concentration for a half-maximal effect (EC50) was 200 to 1000 nM. To `CC(=O)Nc1c[nH]c2ccc(Oc3ccc(C(F)(F)F)cn3)cc12` [Compound 116, N-(5-((5-(trifluoromethyl)pyridin-2-yl)oxy)-1H-indol-3-yl)acetamide] belongs 5000 to 100000 nM.

Take `CC(C)(O)CC(=O)Nc1c[nH]c2ccc(OCCC3CCN(CC(F)(F)F)CC3)cc12` [Compound 118, 3-hydroxy-3-methyl-N-(5-(2-(1-(2,2,2-trifluoroethyl)piperidin-4-yl)ethoxy)-1H-indol-3-yl)butanamide]: the EC50 is 200 to 1000 nM. Consider `COCCc1ccc(OCCc2ccc3[nH]cc(NC(C)=O)c3c2)cc1` [Compound 461, N-(5-{2-[4-(2-methoxyethyl)phenoxy]ethyl}-1H-indol-3-yl)acetamide], for which the EC50 fell in the range of 200 to 1000 nM. For `O=C(Nc1c[nH]c2ccc(O[C@H]3C[C@H](c4ccc(C(F)(F)F)nc4)C3)cc12)c1ccc(C(F)(F)F)cc1` [Compound 465, 4-(trifluoromethyl)-N-(5-(trans-3-(6-(trifluoromethyl)pyridin-3-yl)cyclobutoxy)-1H-indol-3-yl)benzamide], the EC50 lay within 200 to 1000 nM. For the compound `CC(=O)Nc1c[nH]c2ccc(CCOc3ccc(C(F)(F)F)cc3)c(Br)c12` [Compound 546, N-(4-bromo-5-(2-(4-(trifluoromethyl)phenoxy)ethyl)-1H-indol-3-yl)acetamide], the EC50 fell in the range of 1000 to 5000 nM. With `CC1(C(=O)Nc2c[nH]c3ccc(OCC[C@@H]4C[C@@H]5CN(CC(F)(F)F)C[C@@H]5C4)cc23)CCOC1` (stereo partly drawn) [Compound 306, 3-methyl-N-(5-(2-((3aR,5r,6aS)-2-(2,2,2-trifluoroethyl)octahydrocyclopenta[c]pyrrol-5-yl)ethoxy)-1H-indol-3-yl)tetrahydrofuran-3-carboxamide], the EC50 fell in the range of 200 to 1000 nM. To `CC(=O)Nc1c[nH]c2c(Br)cc(CCOc3ccc(C(F)(F)F)cc3)cc12` [Compound 578, N-(7-bromo-5-(2-(4-(trifluoromethyl)phenoxy)ethyl)-1H-indol-3-yl)acetamide] belongs 1000 to 5000 nM; to `CC(=O)Nc1c[nH]c2ccc(CCOc3ccc(F)c(C(F)(F)F)c3)cc12` [Compound 470, N-(5-{2-[4-fluoro-3-(trifluoromethyl)phenoxy]ethyl}-1H-indol-3-yl)acetamide], 200 to 1000 nM. `CO[C@H]1C[C@H](C(=O)Nc2c[nH]c3ccc(OCCc4ccc(C(F)(F)F)cc4)cc23)C1` [Compound 211, trans-3-methoxy-N-(5-(4-(trifluoromethyl)phenethoxy)-1H-indol-3-yl)cyclobutane-1-carboxamide]: the EC50 is 40 to 200 nM. With `CC(=O)Nc1c[nH]c2ccc(O[C@H]3C[C@H](c4ccc(C(F)(F)F)cc4C)C3)cc12` [Compound 435, N-(5-(trans-3-(2-methyl-4-(trifluoromethyl)phenyl)cyclobutoxy)-1H-indol-3-yl)acetamide], the EC50 was in the range of 40 to 200 nM. On to `CNC(Cc1ccc(C(F)(F)F)cc1)Cc1ccc2[nH]cc(NC(C)=O)c2c1` (stereo not drawn) [Compound 506, N-(5-(2-(methylamino)-3-(4-(trifluoromethyl)phenyl)propyl)-1H-indol-3-yl)acetamide], for which the EC50 lay in the range of 5000 to 100000 nM. To `CC(=O)Nc1c[nH]c2ccc(OCC[C@H]3CC[C@H](C(F)(F)F)CC3)cc12` (single isomer, unassigned) [Compound 456, N-(5-(2-(trans-4-(trifluoromethyl)cyclohexyl)ethoxy)-1H-indol-3-yl)acetamide] belongs 200 to 1000 nM; to `CC(C)(O)CC(=O)Nc1c[nH]c2ccc(OCC[C@@H]3C[C@@H]4CN(CC(F)(F)F)C[C@@H]4C3)cc12` [Compound 523, 3-hydroxy-3-methyl-N-(5-(2-((3aR,5r,6aS)-2-(2,2,2-trifluoroethyl)octahydrocyclopenta[c]pyrrol-5-yl)ethoxy)-1H-indol-3-yl)butanamide], 200 to 1000 nM. `CC(C)(C)OC(=O)N1CC(C)(C(=O)Nc2c[nH]c3ccc(OCCc4ccc(C(F)(F)F)cc4)cc23)C1` [Compound 570, tert-butyl 3-methyl-3-((5-(4-(trifluoromethyl)phenethoxy)-1H-indol-3-yl)carbamoyl)azetidine-1-carboxylate]: the EC50 was 200 to 1000 nM. As to `O=C(Nc1c[nH]c2ccc(CCOc3ccc(C(F)(F)F)cc3)cc12)C1COC1` [Compound 164, N-(5-(2-(4-(trifluoromethyl)phenoxy)ethyl)-1H-indol-3-yl)oxetane-3-carboxamide], the EC50 was 200 to 1000 nM.

On to `CC(C)(C)OC(=O)N1CC(C(=O)Nc2c[nH]c3ccc(O[C@H]4C[C@H](c5ccc(C(F)(F)F)cc5)C4)cc23)C1` [Compound 466, tert-butyl 3-((5-(trans-3-(4-(trifluoromethyl)phenyl)cyclobutoxy)-1H-indol-3-yl)carbamoyl)azetidine-1-carboxylate], for which the EC50 was 200 to 1000 nM. Turning to `CC(=O)Nc1c[nH]c2ccc(CCC3CCN(CC(F)(F)F)CC3)cc12` [Compound 114, N-(5-(2-(1-(2,2,2-trifluoroethyl)piperidin-4-yl)ethyl)-1H-indol-3-yl)acetamide], the EC50 was 200 to 1000 nM.
